Experimental findings from patent publication US20260076973A1 (priority 2023, published 2026) are described below.

Data set [1] relates to SARS-CoV-2 (WA1). The data set is described as follows: microbe, parasite or virus in culture. The settings on record: for antiviral effect of positive controls in the CPE assay: SARS-CoV-2 CPE assay. It is filed as cell-based.
For data set [2], the system named is SARS CoV-2 nanoluciferase reporter virus (NLRV). The data set is described as follows: microbe, parasite or virus in culture. It is filed as cell-based. Particulars: Severe acute respiratory syndrome coronavirus 2, A549-ACE2, 72 h.
The subject of data set [3] is 229E virus. The data set is described as follows: 229E coronavirus infection assay in Huh7.5 cells. It is filed as cell-based. The settings on record: read-out: 229E IC50.
Data set [4] has as its system OC43 virus. The data set is described as follows: OC43 coronavirus infection assay in Huh7.5 cells. It counts as cell-based. The settings on record: read-out: OC43 IC50.
Data set [5] is described as follows: Cytotoxicity counter screen in Vero E6 cells (Cell Titer-Glo). The settings on record: African green monkey.
Data set [6] has as its system VeroE6 cells. Described as above. The settings on record: read-out: Cytotoxicity CC50; reference compounds, Vero E6 cells, 72 hours.
The mark [7] stands for this setting: Severe acute respiratory syndrome coronavirus 2, Vero C1008.
The mark [8] stands for this setting: Betacoronavirus 1, OC43, Huh7.5, 72 h.
The mark [9] stands for this setting: Severe acute respiratory syndrome coronavirus 2, Vero C1008, 72 h, reference compounds, SARS-CoV-2 (WA1) CPE assay, Round 2, Vero E6, 72 hours, read-out: Antiviral IC50.

SMILES strings stand for the structures. Where two headings read alike, the source gives them in different places. Where a SMILES comes first, the peptide text is derived from it.

For orientation: IC50 means the concentration that gives 50% inhibition. By IC90 is commonly meant the concentration at which the effect reaches the 90% level. As to `Cc1ccc(Nc2nc(Nc3ccc(C)c(C)c3)nc(N3CCOCC3)n2)cc1` [VIRADEM-11141], the IC50 in data set [1] (setting [7]) was determined as 120 nM; in data set [2] it was 97 nM; in data set [3] (Huh7.5, 48 h), 260 nM; in data set [4] (setting [8]) it was 1650 nM. In addition, the IC90 in data set [2] stood at 118 nM.

In data set [2], `CC(=O)Nc1ccc(Nc2nc(Nc3ccc(C)c(C)c3)nc(N3CCOCC3)n2)cc1` [VIRADEM-11918, N-{4-[4-(3,4-Dimethylphenylamino)-6-morpholin-4-yl-[1,3,5]triazin-2-ylamino]phenyl}-acetamide] gave a concentration for half-maximal inhibition (IC50) of 19 nM and an IC90 of 29 nM.

A word on the CC50: it is the concentration that lowers cell viability or growth by half. Turning to `CCC(CC)COC(=O)[C@H](C)N[P@](=O)(OC[C@H]1O[C@@](C#N)(c2ccc3c(N)ncnn23)[C@H](O)[C@@H]1O)Oc1ccccc1` [Remdesivir, reference compound], the IC50 was 7000 to 10000 nM in data set [1] (setting [7]); 10800 nM in data set [1] (Severe acute respiratory syndrome coronavirus 2, Vero C1008, 72 h, read-out: Antiviral IC50); 13 nM in data set [3] (Huh7.5, 48 h); 9.7 nM in data set [4] (setting [8]). In addition, in data set [1] (reference compounds, Round 2), the “Selectivity Index (CC50/IC50)” value was above 2.8. In addition, the CC50 at 72 h in data set [5] is above 30000 nM.

As to `CCN(CCO)CCCC(C)Nc1ccnc2cc(Cl)ccc12` (centres unmarked) [Hydroxychloroquine, reference compound], the IC50 in data set [1] (setting [9]) worked out at 2100 nM. This compound also showed a CC50 at 72 h in data set [5] (Vero E6 cells) above 30000 nM.

Take `CCN(CC)CCCC(C)Nc1ccnc2cc(Cl)ccc12` (centres unmarked) [Chloroquine, reference compound]: the “antiviral effect of positive controls in the CPE assay” value in data set [1] is on record as “dose dependent antiviral effect”. In data set [1] (setting [9]), the IC50 was 4030 nM. Moreover, the CC50 at 72 h in data set [5] is above 30000 nM.

As to `CC(C)C[C@H](NC(=O)OCc1ccccc1)C(=O)N[C@@H](CC(C)C)C(=O)N[C@@H](Cc1ccc(O)cc1)C(=O)CF` [Calpain Inhibitor IV, reference compound] (HELM PEPTIDE1{[O=C(OCc1ccccc1)[*:2]].L.L.Y.[FC[*:1]]}$$$$V2.0), the “antiviral effect of positive controls in the CPE assay” value in data set [1] is listed as “dose dependent antiviral effect”. The IC50 in data set [1] (reference compounds, SARS-CoV-2 (WA1) CPE assay, Round 2, Vero E6, 72 hours, read-out: Antiviral IC50) was determined as 240 nM. The half-maximal cytotoxic concentration (CC50) in data set [6] was above 7170 nM.

`CC(=O)Nc1ccc(Nc2nc(Nc3ccc(Cl)cc3)nc(N3CCOCC3)n2)cc1` [VIRADEM-11847, N-{4-[4-(4-Chlorophenylamino)-6-morpholin-4-yl-[1,3,5]triazin-2-ylamino]-phenyl}-acetamide]: the IC50 stood at 20 nM in data set [1] (Severe acute respiratory syndrome coronavirus 2, Vero C1008, VIRADEM compounds, SARS-CoV-2(WA1) CPE assay, Round 2, concentration range 1000-0.05 nM, Vero E6, read-out: IC50); 32 nM in data set [2]; 138 nM in data set [3] (48 h, Huh7.5 cells, fixed 2 days after infection); 992 nM in data set [4] (Betacoronavirus 1, OC43, 72 h, Huh7.5 cells, fixed 3 days after infection). In data set [2], this compound gave a 90% effect concentration (IC90) of 41 nM.
